The text below walks through data of patent US12226610B2, “Treatment of pain associated with total knee arthroplasty with sustained-release liposomal anesthetic compositions” (Pacira Pharmaceuticals, Inc., priority 2022, dated 2025).

Data set [1] has as its system subjects undergoing primary unilateral TKA. The data set can be described thus: Time to first opioid consumption (rescue medication) post-surgery. The format is in vivo, human. On the procedure:
(§1) This was a Phase 3, multicenter, randomized, double blind, active controlled study of 167 subjects undergoing primary unilateral TKA under spinal anesthesia. The study consisted of 2 cohorts that were enrolled in parallel. Cohort 1 enrolled 46 subjects to obtain information on the PK profile, pharmacodynamics (PD), efficacy, and safety. Cohort 2 enrolled 121 subjects to obtain information on efficacy and safety. An adaptive study design was used in this study, with an interim analysis conducted by an unblinded independent review committee to evaluate sample size assumptions and futility. […]
(§2) An unscheduled pain intensity assessment using the NRS (measured as “On a scale from 0 to 10, where 0 equals no pain and 10 equals the worst possible pain, how much pain are you experiencing in your operative knee right now?”) was to be completed immediately prior to administration of any breakthrough pain medication up to 96 hours post-surgery. Medications were administered as needed; opioids were not to be given on a pre-determined schedule. […]
(§3) Total postsurgical opioid consumption in OMED from 0 to 96 hours was analyzed using an ANCOVA model. Time to first postsurgical opioid medication was analyzed using the Kaplan Meier survival method. […]

Data set [2] has as its system sensory block and motor block. Put plainly: Pharmacodynamic assessment of sensory and motor block (Cohort 1). Type of data set: in vivo, human. Here is the method:
(§4) This was a Phase 3, multicenter, randomized, double blind, active controlled study of 167 subjects undergoing primary unilateral TKA under spinal anesthesia. The study consisted of 2 cohorts that were enrolled in parallel. Cohort 1 enrolled 46 subjects to obtain information on the PK profile, pharmacodynamics (PD), efficacy, and safety. Cohort 2 enrolled 121 subjects to obtain information on efficacy and safety. An adaptive study design was used in this study, with an interim analysis conducted by an unblinded independent review committee to evaluate sample size assumptions and futility.
(§5) On the day of surgery, prior to surgery, subjects in Cohort 1 and Cohort 2 were randomized (1:1) to receive an adductor canal block with a single dose of either 10 mL EXPAREL (133 mg) admixed with 10 mL 0.5% bupivacaine HCl (50 mg; from hereon referred to as the EXP133-ADMIX arm) or 10 mL 0.5% bupivacaine HCl (50 mg) mixed with 10 mL normal saline (from hereon referred to as the BUP50 arm). The total dose volume was consistent (20 mL) for all subjects.
(§6) Efficacy assessments included pain intensity scores focused on the operative knee using the Numeric Rating Scale (NRS), total postsurgical opioid consumption in OMED, time to first opioid consumption post-surgery, and subject satisfaction using the International Pain Outcome (IPO). Additionally, blood samples for PK analysis (area under the curve [AUC], maximum plasma concentration [Cmax], time of maximum plasma concentration [Tmax], including early and late Cmax and Tmax (EXP133-ADMIX arm only), apparent terminal elimination half-life [t½e1], apparent clearance [CL/F], and apparent volume of distribution [Vd/F]) and PD assessment data (sensory and motor block) were collected from Cohort 1 subjects.
Pharmacodynamic endpoints included: duration of the sensory block and motor block; time to onset of sensory block and motor block; and time to offset of sensory block and motor block.

In data set [3] the test system is subjects undergoing primary unilateral TKA. Put plainly: Total postsurgical opioid consumption (OMED) and opioid-free status. The format is in vivo, human. The following applies: any time interval up to 96 hours post-surgery. On the procedure: as §1, §2, §3
The nature of data set [4]: Plasma bupivacaine pharmacokinetics (Cohort 1). Type of data set: in vivo, human. Here is the method: as §4, §5, §6
Pharmacokinetic endpoints included area under the plasma concentration-versus-time curve, specifically from the time of dosing to the time of the last quantifiable concentration (AUC0-last) and AUC from the time of dosing to infinity (AUC0-∞); maximum plasma concentration (Cmax) and time of maximum plasma concentration (Tmax) for subjects treated with bupivacaine HCl; early and late Cmax and Tmax were determined for subjects treated with EXPAREL admixed with bupivacaine HCl (EXP133-ADMIX arm); t½e1; CL/F; Vd/F.

Data set [5] concerns subjects undergoing primary unilateral TKA. Put plainly: Safety assessments (TEAEs, SAEs, vital signs, EKG). The following applies: in vivo. On the set-up: species or system human. An excerpt:
Safety assessments included monitoring of AEs (including SAEs and adverse events of special interest [AESIs]), vital signs (temperature, resting heart rate, respiratory rate, oxygen saturation, and blood pressure), 12 lead EKG, and recording of concomitant medications.
Safety endpoints included incidence of treatment emergent adverse events and SAEs from start of the nerve block procedure through POD14; change from baseline in vital signs over time; and abnormal post-baseline EKG findings.
Adverse events and SAEs were recorded from the time of informed consent through POD14. Adverse events were coded using the Medical Dictionary for Regulatory Activities version 24.1 and summary tables were based on the Safety Analysis Set. A subject data listing was provided for all AEs, which included the reported term, preferred term, system organ class, treatment-emergent adverse event flag, study day of AE onset, AE start/stop date and time, relationship to study drug, frequency, severity, action taken with subject, outcome, and seriousness criteria.
Vital signs and their change from baseline were summarized with mean, median, and standard deviation at baseline and at each scheduled time point. The frequency and percentage of EKG findings (normal, abnormal/not clinically significant, and abnormal/clinically significant) were summarized at screening and each scheduled time point.
An AE can be defined as any untoward medical occurrence associated with the use of a drug in humans, whether or not considered drug related. An AE (also referred to as an adverse experience) could be any unfavorable and unintended sign (e.g., abnormal laboratory finding), symptom, or disease temporally associated with the use of a drug, without any judgment about causality. An AE could arise from any use of the drug (e.g., off-label use in combination with another drug) and from any route of administration, formulation, or dose, including an overdose.
An AE that occurred after administration of the study treatment was considered a treatment-emergent adverse event (TEAE). A continuous AE with varying grades of severity was to be recorded as 1 AE. The highest grade of severity experienced by that subject during the course of the continuous AE was to be recorded.
Assessment of the relationship of the AE to study drug after careful medical consideration on a case-by-case basis. […]

Where a name gives a salt, the structure may show the parent alone. A value given as a limit tells only on which side of the number the result lay.

Broadly, the AUC(0-inf) is the area under the concentration-time curve extrapolated to infinity. Read a low AUC(0-inf) as less exposure. A word on the AUC(0-t): it is exposure summed from dosing to a finite time, without extrapolation to infinity. Lower therefore signals low exposure. The Cmax is the peak of the concentration-time curve. For `CCCCN1CCCCC1C(=O)Nc1c(C)cccc1C` (stereo not drawn) [BUP50, bupivacaine HCl], the “median time to first rescue medication” value in data set [1] is 3.63 h. In data set [2] (8 hours post dose (first time point with majority)), the “subjects in whom knee extension was not present” value was determined as 71.4%. For the same compound, in data set [2] (in vivo), the “median duration of sensory block” value is 11.63 h. In data set [2] (post-dose), the “time by which all subjects regained normal sensory function” value is at most 24 h. For the same compound, the subjects opioid free entry in data set [3] is “No subjects”. In data set [4] (human, in vivo), the AUC(0-inf) was 7450 ng·h/mL, the AUC(0-t) worked out at 7280 ng·h/mL, the concentration at 60 h came out at 43.2 ng/mL and the “median time of Cmax” value is recorded as 0.65 h. Further, the “shape of mean bupivacaine concentration over time” value in data set [4] (in vivo) was “a single peak”. Moreover, the Cmax in data set [4] (plasma bupivacaine) was found to be 333.89 ng/mL. Further, in data set [5] (human), the “subjects with clinically significant abnormal EKG findings” value came out at 1 subjects, the “subjects with ≥1 TEAE” value worked out at 88.8% and the “subjects with ≥1 TEAE related to study drug” value is 2 subjects. The “subjects discontinued from the study following SAEs” value in data set [5] was “One”.
